From patent US20230148599A1, “FUNGICIDAL MIXTURES CONTAINING PYRAZOLE DERIVATIVES” (FMC Corporation, priority 2020, published 2023)

Tests used:
Assay type in all cases: in vivo
Septoria tritici = assay: Test A: wheat leaf blotch, preventive spray on wheat seedlings; settings: 50 ppm, 100 = 100% disease control, 0 = no control; for pest or weed control at 50 ppm: Zymoseptoria tritici, 456 h, read-out: Test A disease control rating
Description: (§1) General protocol for preparing test suspensions for Tests A-F: the test compounds were first dissolved in acetone in an amount equal to 3% of the final volume and then suspended at the desired concentration (in ppm) in acetone and purified water (50/50 mix by volume) containing 250 ppm of the surfactant PEG400 (polyhydric alcohol esters). The resulting test suspensions were then used in Tests A-F.
(§2) The test solution was sprayed to the point of run-off on wheat seedlings. The following day the seedlings were inoculated with a spore suspension of Septoria tritici (the causal agent of wheat leaf blotch) and incubated in a saturated atmosphere at 24° C. for 48 h, and then moved to a growth chamber at 20° C. for 17 days, after which time disease ratings were made.
(§3) A rating of 100 indicates 100% disease control and a rating of 0 indicates no disease control (relative to the controls). A dash (−) indicates the compound was not tested.

Phakopsora pachyrhizi = assay: Test D: Asian soybean rust, preventive spray on soybean seedlings; settings: 50 ppm, 100 = 100% disease control, 0 = no control; for pest or weed control at 50 ppm: 216 h, read-out: Test D disease control rating
Description: as §1
The test solution was sprayed to the point of run-off on soybean seedlings. The following day the seedlings were inoculated with a spore suspension of Phakopsora pachyrhizi (the causal agent of Asian soybean rust) and incubated in a saturated atmosphere at 22° C. for 24 h and then moved to a growth chamber at 22° C. for 8 days, after which time visual disease ratings were made.
as §3

Alternaria solani = assay: Test F: tomato early blight, preventive spray on tomato seedlings; settings: 50 ppm, 100 = 100% disease control, 0 = no control; for pest or weed control at 50 ppm: 120 h, read-out: Test F disease control rating
Description: as §1
(§4) The test suspension was sprayed to the point of run-off on tomato seedlings. The following day the seedlings were inoculated with a spore suspension of Alternaria solani (the causal agent of tomato early blight) and incubated in a saturated atmosphere at 27° C. for 48 h, and then moved to a growth chamber at 20° C. for 3 days, after which time visual disease ratings were made.
as §3

[1] = tested on: Puccinia recondita f. sp. tritici; assay: Test B: wheat leaf rust, preventive spray on wheat seedlings; settings: 50 ppm, 100 = 100% disease control, 0 = no control; for pest or weed control at 50 ppm: 192 h, read-out: Test B disease control rating
Description: as §1
as §2, with “Puccinia recondita f. sp.” for “Septoria”, “rust)” for “blotch)”, “20°” for “24°”, “24” for “48”, “7” for “17”
as §3

Botrytis cinerea = assay: Test E: tomato Botrytis, preventive spray on tomato seedlings; settings: 50 ppm, 100 = 100% disease control, 0 = no control; for pest or weed control at 50 ppm: 120 h, read-out: Test E disease control rating
Description: as §1
as §4, with “Botrytis cinerea” for “Alternaria solani”, “Botrytis)” for “early blight)”, “20°” for “27°”, “24°” for “20°”
as §3

[2] = tested on: Blumeria graminis f. sp. tritici; assay: Test C: wheat powdery mildew, preventive spray on wheat seedlings; settings: 50 ppm, 100 = 100% disease control, 0 = no control
Description: as §1
The test suspension was sprayed to the point of run-off on wheat seedlings. The following day the seedlings were inoculated with a spore dust of Blumeria graminis f. sp. tritici, (also known as Erysiphe graminis f. sp. tritici, the causal agent of wheat powdery mildew) and incubated in a growth chamber at 20° C. for 8 days, after which time visual disease ratings were made.
as §3

| SMILES | Test A disease control rating (Septoria tritici) [%] | Test D disease control rating (Phakopsora pachyrhizi) [%] | Test F disease control rating (Alternaria solani) [%] | Test B disease control rating [1] [%] | Test E disease control rating (Botrytis cinerea) [%] | Test C disease control rating [2] [%] | pest or weed control at 50 ppm (Septoria tritici) [%] | pest or weed control at 50 ppm (Phakopsora pachyrhizi) [%] | pest or weed control at 50 ppm (Alternaria solani) [%] | pest or weed control at 50 ppm [1] [%] | pest or weed control at 50 ppm (Botrytis cinerea) [%] |
| --- | --- | --- | --- | --- | --- | --- | --- | --- | --- | --- | --- |
| Cn1nc(C#N)c(-c2ccc(F)cc2Cl)c1Nc1c(F)cccc1[N+](=O)[O-] [compound 122] | 100 | 0 | 99 | 100 | 100 | 94 |  |  |  |  |  |
| Cc1ccc(Nc2c(-c3ccc(F)cc3Br)c(C)nn2C)c([N+](=O)[O-])c1 [compound 90] | 100 | 0 | 9 | 95 | 99 | 87 |  |  |  |  |  |
| Cc1nn(C)c(Nc2c(F)cc(Br)cc2[N+](=O)[O-])c1-c1ccc(C#N)cc1Cl [compound 155] | 99 | 0 | 93 | 99 | 100 | 90 |  |  |  |  |  |
| COc1ccc(Nc2c(-c3ccc(F)cc3Br)c(C)nn2C)c([N+](=O)[O-])c1 [compound 52] | 100 | 59 | 94 | 100 | 99 | 90 |  |  |  |  |  |
| CCc1nn(C)c(Nc2c(F)cccc2[N+](=O)[O-])c1-c1ccc(F)cc1F [compound 46] | 100 | 0 | 81 | 98 | 99 | 99 |  |  |  |  |  |
| COc1ccc(Nc2c(-c3c(F)cccc3F)c(C)nn2C)c([N+](=O)[O-])c1 [compound 87] |  | 0 | 93 | 99 | 98 | 98 |  |  |  |  |  |
| Cc1ccc(Nc2c(-c3ccc(F)cc3F)c(C)nn2C)c([N+](=O)[O-])c1 [compound 107] |  | 0 | 0 | 91 | 98 | 61 |  |  |  |  |  |
| COc1ccc(Nc2c(-c3ccc(F)cc3F)c(C)nn2C)c([N+](=O)[O-])c1 [compound 88] |  | 0 | 9 | 97 | 99 | 84 |  |  |  |  |  |
| CCc1ccc(Nc2c(-c3ccc(F)cc3Cl)c(C)nn2C)c([N+](=O)[O-])c1 [compound 6] |  | 0 | 0 | 74 | 55 | 27 |  |  |  |  |  |
| COc1ccc(Nc2c(-c3c(F)cc(F)cc3Cl)c(C)nn2C)c([N+](=O)[O-])c1 [compound 89] |  | 80 | 99 | 100 | 99 | 99 |  |  |  |  |  |
| Cc1ccc(Nc2c(-c3c(F)cc(F)cc3Cl)c(C)nn2C)c([N+](=O)[O-])c1 [compound 106] |  | 0 | 68 | 100 | 99 | 98 |  |  |  |  |  |
| Cc1nn(C)c(Nc2c(F)cccc2[N+](=O)[O-])c1-c1c(F)cc(F)cc1Br [Compound 1, 4-(2-bromo-4,6-difluorophenyl)-N-(2-fluoro-6-nitrophenyl)-1,3-dimethyl-1H-pyrazol-5-amine] |  |  |  |  |  |  | 100 | 84 | 99 | 100 | 100 |
| Cc1nn(C)c(N(C)c2c(F)cccc2[N+](=O)[O-])c1-c1ccc(F)cc1Cl [Compound 172] |  |  |  |  |  |  | 100 | 0 | 40 | 100 | 99 |
